# Values of other authors as cited in patent US20190150439A1, “SOLUBLE LIQUID FORMULATIONS OF QUINCLORAC AMMONIUM SALTS” (BASF SE, priority 2012, published 2019).
# Conditions: pH 7 at 20° C.
structure (smiles),measurement,value
"O=C(O)c1c(Cl)ccc2cc(Cl)cnc12 [Quinclorac, 3,7-dichloro-8-quinolinecarboxylic acid]",solubility in water,0.065 mg/kg
